Laboratory results taken from article PMC9138141, “Design, Spectral Characteristics, Photostability, and Possibilities for Practical Application of BODIPY FL-Labeled Thioterpenoid” (Bioengineering, 2022).
Like-named read-outs stand apart in the source and are kept apart here.

Key:
[1] = Photobleaching (photodegradation) under UV irradiation at 365 nm; type: physicochemical; settings: for kobs∙106 of photodegradation / half-life: UV 365 nm; for half-life: read-out: t1/2 of photodegradation (converted)
Method: The photofading was carried out in quartz cells. The BODIPY solutions in cyclohexane (toluene, 1-octanol, DMSO with c = ~1·10^−5 mol·L^−1) were irradiated with monochromatic light (mercury lamp 250 W with a light filter Carl Zeiss JENA, at λ = 365 nm and room temperature). The area of the light flux was 2.02 cm^2 at a specific power W365 = 4.04 mW·cm^−2 of the UV lamp. The irreversible bleaching of the luminophores at the absorption peak was monitored as a function of time. The EAS of the dye solution was recorded at equal intervals of irradiation (through 5–20 min) on a spectrofluorometer SM2203 in the 300–600 nm wavelength range. The half-life (t1/2) was defined as the time during which the chromophore is destroyed by 50%. The error in determining of t1/2 is 3–5%.
The observed photooxidation rate constants (kobs) were determined by the equation ln(At/A0) = kobs∙t, where A0 and At are the initial and current optical density at the maximum of the long-wavelength absorption band, respectively, and t is the time of irradiation of the sample with UV light.

[2] = Luminescent characteristics (fluorescence) in organic solvents; type: physicochemical; settings: for λmaxfl: λex 470 nm
Method: (§1) The absorption and emission spectra of dyes solutions (in the range of 10^−6 to 10^−5 M) were recorded on CM 2203 spectrofluorometer (SOLAR) in a 10 mm of absorbing layer thickness at T = 25 ± 0.1 °C. The fluorescence quantum yield (φ), the fluorescence lifetime (τ), the rate constants of radiative processes (krad), and-radiative deactivation (knr) were obtained to use by the standard procedure. The fluorescence quantum yields (φ) of compounds were measured using the standard method (using standard Rhodamine 6G). The φ and τ errors were 10–15 %. The Stokes shift ( ΔλSt ) was calculated by the formula: […]

[3] = system: laboratory mice erythrocytes; assay: Penetration into RBC (fluorescence of hemolysates and of residual medium); type: cell-based; settings: 20 μM, 10, 30, 60 min incubation, RBC washed three times with PBS
Method: To assess the rate of penetration of the BODIPY 2 and its conjugate with a thioterpenoid 6 into RBC, the compounds were added to a suspension of erythrocytes (final concentration 20 μM) and incubated in a thermostatic shaker Biosan ES-20 with slow stirring at 37 °C. After 10, 30, and 60 min, an aliquot was taken and centrifuged to separate erythrocytes from the incubation medium containing the BODIPY 2 or conjugate 6. Erythrocytes were washed three times with PBS, hemolyzed by adding H2O, DMSO was added, and the fluorescence spectra of hemolysates were studied using a Fluorat-02-Panorama spectrofluorometer (Lumex, Saint Petersburg, Russia). The binding of the BODIPY 2 or conjugate 6 to cells was judged from the fluorescence intensity of the corresponding compounds in hemolysates. DMSO was added to the medium (PBS) remaining after cell incubation, and the corresponding fluorescence spectra were also analyzed. Its intensity was used to judge the residual content of the studied compounds in PBS.

[4] = system: laboratory mice erythrocytes; assay: Hemolytic activity (erythrotoxicity); type: cell-based; settings: 20 µM, entire incubation period 5 h, 37 °C, PBS pH 7.4
Method: A 0.5% (v/v) suspension of laboratory mice erythrocytes in phosphate-buffered saline (PBS, pH 7.4) was used. The hemolytic activity (erythrotoxicity) of the compounds 2 and 6 was assessed by the degree of erythrocyte hemolysis 1, 3, and 5 h after the addition of solutions of the test compounds in DMSO (final concentration 20 μM). The erythrocyte suspension was incubated in a thermostatic shaker Biosan ES-20 with slow stirring at 37 °C temperature for 5 h. After 1, 3, and 5 h, an aliquot was taken, centrifuged, the degree of hemolysis was determined by the hemoglobin content in the supernatant on a Thermo Spectromic Genesys 20 spectrophotometer at λ = 541 nm. The percentage of hemolysis was calculated relative to the total hemolysis of the sample.

[5] = Electronic absorption spectra in organic solvents; type: physicochemical
Method: as §1

[6] = range over the solvents studied

COC(=O)CCCC1=C2C(C)=CC(C)=[N+]2[B-](F)(F)n2c(C)cc(C)c21 [Compound 2]
kobs∙106 of photodegradation ([1]; 1-octanol): 3.1 ± 0.3 s⁻¹ | kobs∙106 of photodegradation ([1]; DMSO): 27.7 ± 0.3 s⁻¹ | kobs∙106 of photodegradation ([1]; cyclohexane): 2.9 ± 0.3 s⁻¹ | half-life ([1]; solution in 1-octanol, 1-octanol): 82.3 h | half-life ([1]; solution in DMSO, DMSO): 8.3 h | half-life ([1]; solution in cyclohexane, cyclohexane): 88.6 h | half-life ([1]; solution in toluene, toluene): 40.5 h | half-life increase / photodestruction rate constant decrease compared to 7 ([1]; studied solvents): 1.5–2.2 times | kobs∙106 of photodegradation ([1]; toluene): 5.5 ± 0.3 s⁻¹ | ΔλSt, Stokes shift ([2]; 1-butanol): 15 nm | φ, fluorescence quantum yield ([2]; 1-butanol): 0.966 | λmaxfl ([2]; 1-butanol): 513 nm | ΔλSt, Stokes shift ([2]; 1-octanol): 16 nm | φ, fluorescence quantum yield ([2]; 1-octanol): 0.989 | λmaxfl ([2]; 1-octanol): 515 nm | ΔλSt, Stokes shift ([2]; 1-propanol): 16 nm | φ, fluorescence quantum yield ([2]; 1-propanol): 0.956 | λmaxfl ([2]; 1-propanol): 514 nm | ΔλSt, Stokes shift ([2]; DMF): 15 nm | φ, fluorescence quantum yield ([2]; DMF): 0.836 | λmaxfl ([2]; DMF): 512 nm | ΔλSt, Stokes shift ([2]; DMSO): 15 nm | φ, fluorescence quantum yield ([2]; DMSO): 0.769 | λmaxfl ([2]; DMSO): 512 nm | ΔλSt, Stokes shift ([2]; chloroform): 15 nm | φ, fluorescence quantum yield ([2]; chloroform): 0.908 | λmaxfl ([2]; chloroform): 516 nm | ΔλSt, Stokes shift ([2]; cyclohexane): 12 nm | φ, fluorescence quantum yield ([2]; cyclohexane): 0.999 | λmaxfl ([2]; cyclohexane): 512 nm | fluorescence quenching ([2]; electron-donating media): 16–24% | ΔλSt, Stokes shift ([2]; ethanol): 13 nm | φ, fluorescence quantum yield ([2]; ethanol): 0.910 | increase of fluorescence quantum yield in the homologous series of alcohols ([2]; ethanol, 1-propanol, 1-butanol, 1-octanol): ~ 8% | λmaxfl ([2]; ethanol): 510 nm | constants of radiative processes (krad) [2, 6]: 5.96–8.33 × 10^7 s^−1 | fluorescence lifetime [2, 6]: 10.2–16.0 ns | ΔλSt, Stokes shift ([2]; toluene): 17 nm | φ, fluorescence quantum yield ([2]; toluene): 0.991 | λmaxfl ([2]; toluene): 518 nm | emission band maxima λmaxfl, range ([2]; λex = 470 nm, all solvents): 510–519 nm | penetration into erythrocytes (fluorescence of RBC hemolysates) [3]: practically not detected in hemolysates | hemolysis of RBC (erythrotoxicity) [4]: did not exceed the spontaneous level | ε, molar absorption coefficient ([5]; 1-butanol): 74136 L/mol/cm | λmaxabs S0→S1 ([5]; 1-butanol): 498 nm | λmaxabs S0→S2 ([5]; 1-butanol): 356–363 nm | ε, molar absorption coefficient ([5]; 1-octanol): 72443 L/mol/cm | λmaxabs S0→S1 ([5]; 1-octanol): 499 nm | λmaxabs S0→S2 ([5]; 1-octanol): 357–364 nm | ε, molar absorption coefficient ([5]; 1-propanol): 74948 L/mol/cm | λmaxabs S0→S1 ([5]; 1-propanol): 498 nm | λmaxabs S0→S2 ([5]; 1-propanol): 359–369 nm | ε, molar absorption coefficient ([5]; DMF): 76709 L/mol/cm | λmaxabs S0→S1 ([5]; DMF): 497 nm | λmaxabs S0→S2 ([5]; DMF): 357–363 nm | ε, molar absorption coefficient ([5]; DMSO): 66069 L/mol/cm | λmaxabs S0→S1 ([5]; DMSO): 497 nm | λmaxabs S0→S2 ([5]; DMSO): 356–363 nm | ε, molar absorption coefficient ([5]; chloroform): 74131 L/mol/cm | λmaxabs S0→S1 ([5]; chloroform): 501 nm | λmaxabs S0→S2 ([5]; chloroform): 358–363 nm | ε, molar absorption coefficient ([5]; cyclohexane): 87724 L/mol/cm | λmaxabs S0→S1 ([5]; cyclohexane): 500 nm | λmaxabs S0→S2 ([5]; cyclohexane): 359–364 nm | ε, molar absorption coefficient ([5]; ethanol): 72444 L/mol/cm | λmaxabs S0→S1 ([5]; ethanol): 497 nm | λmaxabs S0→S2 ([5]; ethanol): 356–361 nm | ε, molar absorption coefficient ([5]; toluene): 79432 L/mol/cm | λmaxabs S0→S1 ([5]; toluene): 501 nm | λmaxabs S0→S2 ([5]; toluene): 360–368 nm

CC1=CC(C)=[N+]2C1=Cc1c(C)cc(C)n1[B-]2(F)F [Compound 7, 4,4-Difluoro-1,3,5,7-tetramethyl-4-bora-3a,4a-diaza-s-indacene, reference compound]
ΔλSt, Stokes shift ([2]; 1-butanol): 10 nm | φ, fluorescence quantum yield ([2]; 1-butanol): 0.932 | λmaxfl ([2]; 1-butanol): 516 nm | ΔλSt, Stokes shift ([2]; 1-octanol): 8 nm | φ, fluorescence quantum yield ([2]; 1-octanol): 0.941 | λmaxfl ([2]; 1-octanol): 516 nm | ΔλSt, Stokes shift ([2]; 1-propanol): 10 nm | φ, fluorescence quantum yield ([2]; 1-propanol): 0.920 | λmaxfl ([2]; 1-propanol): 513 nm | ΔλSt, Stokes shift ([2]; DMF): 10 nm | φ, fluorescence quantum yield ([2]; DMF): 0.990 | λmaxfl ([2]; DMF): 513 nm | ΔλSt, Stokes shift ([2]; DMSO): 12 nm | φ, fluorescence quantum yield ([2]; DMSO): 0.963 | λmaxfl ([2]; DMSO): 516 nm | Stokes shift, range ([2]; all solvents): 6–12 nm | ΔλSt, Stokes shift ([2]; chloroform): 8 nm | φ, fluorescence quantum yield ([2]; chloroform): 0.903 | λmaxfl ([2]; chloroform): 516 nm | φ, fluorescence quantum yield ([2]; cyclohexane): 1.0 | λmaxfl ([2]; cyclohexane): 514 nm | ΔλSt, Stokes shift ([2]; ethanol): 7 nm | φ, fluorescence quantum yield ([2]; ethanol): 0.879 | λmaxfl ([2]; ethanol): 512 nm | ΔλSt, Stokes shift ([2]; toluene): 8 nm | φ, fluorescence quantum yield ([2]; toluene): 0.825 | λmaxfl ([2]; toluene): 519 nm | ε, molar absorption coefficient ([5]; 1-butanol): 86745 L/mol/cm | λmaxabs S0→S1 ([5]; 1-butanol): 506 nm | λmaxabs S0→S2 ([5]; 1-butanol): 364–375 nm | ε, molar absorption coefficient ([5]; 1-octanol): 84427 L/mol/cm | λmaxabs S0→S1 ([5]; 1-octanol): 508 nm | λmaxabs S0→S2 ([5]; 1-octanol): 362–376 nm | ε, molar absorption coefficient ([5]; 1-propanol): 87096 L/mol/cm | λmaxabs S0→S1 ([5]; 1-propanol): 503 nm | λmaxabs S0→S2 ([5]; 1-propanol): 362–375 nm | ε, molar absorption coefficient ([5]; DMF): 85857 L/mol/cm | λmaxabs S0→S1 ([5]; DMF): 503 nm | λmaxabs S0→S2 ([5]; DMF): 364–375 nm | ε, molar absorption coefficient ([5]; DMSO): 82190 L/mol/cm | λmaxabs S0→S1 ([5]; DMSO): 504 nm | λmaxabs S0→S2 ([5]; DMSO): 363–376 nm | ε, molar absorption coefficient ([5]; chloroform): 89125 L/mol/cm | λmaxabs S0→S1 ([5]; chloroform): 508 nm | λmaxabs S0→S2 ([5]; chloroform): 363–374 nm | ε, molar absorption coefficient ([5]; cyclohexane): 91201 L/mol/cm | λmaxabs S0→S1 ([5]; cyclohexane): 509 nm | λmaxabs S0→S2 ([5]; cyclohexane): 366–376 nm | ε, molar absorption coefficient ([5]; ethanol): 81283 L/mol/cm | λmaxabs S0→S1 ([5]; ethanol): 505 nm | λmaxabs S0→S2 ([5]; ethanol): 363–374 nm | ε, molar absorption coefficient ([5]; toluene): 82444 L/mol/cm | λmaxabs S0→S1 ([5]; toluene): 511 nm | λmaxabs S0→S2 ([5]; toluene): 365–373 nm
